This is an account of results in patent EP2611847B1, “AMPHIPHILE FOR SOLUBILIZATION OF WATER-SOLUBLE ACTIVE INGREDIENTS” (BASF SE, priority 2010, dated 2012).

A short description of the data set: physchem. In kind it is physicochemical. The settings on record: for solubility thermodynamic at 24 h: thermodynamic from solid. As to the method:
In einem 50 mL Becherglas wurden 100 mg Polymer eingewogen und in 9,900 g dest. Wasser gelöst. Anschließend wurde dem Ansatz jeweils 100 mg Wirkstoff zugewogen, um eine übersättigte Lösung zu erhalten. Das Gemisch wurde nun 24 h bei Raumtemperatur mit Hilfe eines Magnetrührers gerührt. Nach einstündiger Ruhezeit wurde überschüssiger (d.h. nicht solubilisierter) Wirkstoff durch Zentrifugieren abgetrennt. Die so erhaltene, klare bzw. opake Lösung wurde anschließend auf ihren Wirkstoffgehalt mittels UV-Spektroskopie untersucht. Die Wellenlänge der UV-spektroskopischen Messung sind in Tabelle 1 zusammengestellt. Die Ergebnisse sind in Tabelle 2 zusammengestellt.

The mark [1] stands for this setting: active alone in dist. water without polymer (not according to the invention), 24 h at room temperature.

Converted amounts (≈) assume the structure as drawn. Where two headings read alike, the source gives them in different places.

For the compound `COC(=O)N(OC)c1ccccc1COc1ccn(-c2ccc(Cl)cc2)n1` [Pyraclostrobin], the “Löslichkeit Ohne Polymer” value under setting [1] is given as 22,5 mg/l.
Consider `N#Cc1nn(-c2c(Cl)cc(C(F)(F)F)cc2Cl)c(N)c1[S+]([O-])C(F)(F)F` (stereo not shown) [Fipronil], for which the solubility thermodynamic at 24 h (distilled water without polymer, active alone in dist. water without polymer (not according to the invention), 24 h at room temperature, read-out: Löslichkeit Ohne Polymer) came out at 3 µg/mL (≈ 6.86 µM).
For `CN1C(C(=O)Nc2ccccn2)=C(O)c2ccccc2S1(=O)=O` [Piroxicam], the solubility thermodynamic at 24 h (water) turned out to be 21 µg/mL (≈ 63.4 µM).
For the compound `NC(=O)N1c2ccccc2C=Cc2ccccc21` [Carbamazepin], the “Löslichkeit Ohne Polymer” value under setting [1] is 140 mg/L.
